# Assay results from patent publication US20180371076A1, “MATERNAL TH17 CELLS AND PSYCHIATRIC DISORDERS” (New York University, priority 2017, published 2018).
# Columns and labels:
# [1] = test system: IL-17Ra mRNA; test: IL-17Ra mRNA in fetal brain (real-time PCR, in situ hybridization); type: in vivo, mouse; conditions: E14.5
# Experimental: In Situ Hybridization. E14.5 embryos from PBS or poly(I:C)-treated mothers were collected in ice-cold PBS and subsequently fixed in 4% paraformaldehyde for 4 h at 4° C. Isolated brains were dehydrated in 30% sucrose/PBS solution overnight, and then embedded in Tissue Tek O.C.T. compound (Sakura Finetek, Torrance, Calif.). The blocks were sectioned at 16-μm thickness using a cryostat (Leica). Fluorescent in situ hybridization was performed using a branched cDNA probe with amplification technology (ViewRNA ISH Tissue Assay kit, Panomics, Santa Clara) according to the manufacturer's protocol. […]
# Real-Time PCR Total RNA was extracted from the cerebral cortex of E14.5 fetal brain of male embryo (RNase plus mini kit, Qiagen) as well as from the decidua- and the placenta-derived mononuclear cells and reverse transcribed into cDNA using oligodT (ProtoScript first strand cDNA synthesis kit, NEB) according to the manufacturer's instructions. mRNA levels of target genes (il17ra, il17rc, il17a and il6) were quantified with a Real-Time PCR System (CFX connect Real-Time PCR, Bio-Rad) using fluorescent SYBR Green technology (Bio-Rad). […] Changes in relative gene expression normalized to gapdh or actin levels were determined using the relative threshold cycle method based on the Cont-PBS group. […]
# [2] = test system: IL-1β; test: IL-1β ELISA of maternal serum; type: in vivo, mouse; conditions: poly(I:C) at E12.5, 3 h, vs PBS
# Experimental: Cell preparation, Flow cytometry, ELISA Embryos at each implantation site were dissected in ice-cold HBSS containing Ca2+ and Mg2+ (Gibco). Myometrium was first peeled off of the decidua and embryos were discarded. Dissected decidual and placental tissues were then minced and enzymatically dissociated in HBSS containing 0.28 Wunsch units (WU)/mL Liberase (Roche) and 30 μg/mL DNase I (Roche) for 30 min at 37° C. with intermittent mixing. Digested tissues were washed in PBS containing 5 mM EDTA and 5% fetal bovine serum and then incubated again in the same buffer for 15 min at 37° C. prior to filtration through a cell strainer. […] Intracellular cytokine staining was performed according to the manufacturer's protocol (Cytofix/Cytoperm buffer set from BD with Pacific Blue-conjugated CD4, FITC or PerCP-Cy5.5-conjugated CD8, APC4 Cy7-conjugated TCR-β, PE-Cy7-conjugated anti-IL-17a, PE-conjugated anti-IFN-γ, PECy7-conjugated anti-CD25 and PE-conjugated Foxp3 (eBioscience). LSR II (BD Biosciences) and FlowJo software (Tree Star) were used for flow cytometry and analysis. Dead cells were excluded using the Live/Dead fixable aqua dead cell stain kit (Invitrogen). For ELISA with sera and placenta/decidua extract, IL-6 (Ebioscience), IL-17a, TNF-α, IL-1β, IFN-β (Biolgened), and IL-10 (BD) were measured according to the manufacturer's protocol.
substance,measurement,setting,value
poly(I:C),IL-17Ra mRNA in fetal brain (real-time PCR),[1]; induction of MIA,strongly augmented
same,IL-17Ra mRNA in fetal brain cortex (in situ hybridization),[1]; poly(I:C) injection of pregnant dams,strongly up-regulated
same,serum IL-1β,[2],strong induction
